Test results taken from the NIST ThermoML archive (doi:10.1021/acs.jced.8b00554).
± gives the expanded uncertainty stated by the source.

Assay: xn = mol fraction of the nth substance listed
Conditions: Liquid, Vibrating tube method

CCCCCCCC [octane] + CCCO
mass density [kg/m3]
Conditions	343.15 K	353.15 K
100 kPa, x2 = 0.1631	665.21 ± 4.3	654.7 ± 4.2
100 kPa, x2 = 0.2111	667.28 ± 4.3	656.5 ± 4.2
100 kPa, x2 = 0.3158	672.81 ± 4.3	661.43 ± 4.2
100 kPa, x2 = 0.4411	681.54 ± 4.4	669.56 ± 4.3
100 kPa, x2 = 0.7301	709.96 ± 4.5	697.88 ± 4.5
100 kPa, x2 = 0.8823	734.38 ± 4.7	723.05 ± 4.6
1000 kPa, x2 = 0.3158	–	663.09 ± 4.2
1000 kPa, x2 = 0.8823	735.58 ± 4.7	–
1010 kPa, x2 = 0.1631	–	656.23 ± 4.2
1010 kPa, x2 = 0.2111	668.8 ± 4.3	658.1 ± 4.2
1010 kPa, x2 = 0.4411	682.72 ± 4.4	671.12 ± 4.3
1010 kPa, x2 = 0.7301	711.47 ± 4.6	–
1010 kPa, x2 = 0.8823	–	724.42 ± 4.6
1020 kPa, x2 = 0.1631	666.65 ± 4.3	–
1020 kPa, x2 = 0.3158	674.29 ± 4.3	–
1020 kPa, x2 = 0.7301	–	699.6 ± 4.5
2000 kPa, x2 = 0.1631	667.79 ± 4.3	–
2000 kPa, x2 = 0.4411	–	672.33 ± 4.3
2010 kPa, x2 = 0.2111	669.99 ± 4.3	659.4 ± 4.2
2010 kPa, x2 = 0.3158	–	664.39 ± 4.3
2010 kPa, x2 = 0.4411	683.85 ± 4.4	–
2010 kPa, x2 = 0.8823	736.66 ± 4.7	–
2020 kPa, x2 = 0.1631	–	657.52 ± 4.2
2020 kPa, x2 = 0.3158	675.48 ± 4.3	–
2020 kPa, x2 = 0.7301	712.6 ± 4.6	700.81 ± 4.5
2020 kPa, x2 = 0.8823	–	725.57 ± 4.7
3000 kPa, x2 = 0.1631	–	658.76 ± 4.2
3000 kPa, x2 = 0.2111	671.1 ± 4.3	–
3000 kPa, x2 = 0.3158	676.61 ± 4.3	–
3000 kPa, x2 = 0.4411	685.01 ± 4.4	–
3000 kPa, x2 = 0.7301	–	702.03 ± 4.5
3010 kPa, x2 = 0.3158	–	665.6 ± 4.3
3010 kPa, x2 = 0.4411	–	673.58 ± 4.3
3010 kPa, x2 = 0.7301	713.72 ± 4.6	–
3010 kPa, x2 = 0.8823	–	726.72 ± 4.7
3020 kPa, x2 = 0.1631	668.96 ± 4.3	–
3020 kPa, x2 = 0.2111	–	660.63 ± 4.2
3020 kPa, x2 = 0.8823	737.74 ± 4.7	–
4000 kPa, x2 = 0.3158	677.77 ± 4.3	–
4000 kPa, x2 = 0.8823	738.79 ± 4.7	727.86 ± 4.7
4010 kPa, x2 = 0.2111	–	661.88 ± 4.2
4010 kPa, x2 = 0.3158	–	666.84 ± 4.3
4010 kPa, x2 = 0.4411	686.15 ± 4.4	674.84 ± 4.3
4010 kPa, x2 = 0.7301	714.83 ± 4.6	703.25 ± 4.5
4020 kPa, x2 = 0.1631	670.09 ± 4.3	659.99 ± 4.2
4020 kPa, x2 = 0.2111	672.25 ± 4.3	–
5000 kPa, x2 = 0.2111	–	663.08 ± 4.2
5000 kPa, x2 = 0.4411	–	676.07 ± 4.3
5000 kPa, x2 = 0.7301	715.96 ± 4.6	–
5010 kPa, x2 = 0.1631	671.22 ± 4.3	661.2 ± 4.2
5010 kPa, x2 = 0.3158	–	668.06 ± 4.3
5010 kPa, x2 = 0.4411	687.28 ± 4.4	–
5010 kPa, x2 = 0.7301	–	704.44 ± 4.5
5010 kPa, x2 = 0.8823	739.88 ± 4.7	–
5020 kPa, x2 = 0.2111	673.37 ± 4.3	–
5020 kPa, x2 = 0.3158	678.9 ± 4.3	–
5020 kPa, x2 = 0.8823	–	729.03 ± 4.7
6000 kPa, x2 = 0.4411	–	677.27 ± 4.3
6000 kPa, x2 = 0.7301	–	705.64 ± 4.5
6010 kPa, x2 = 0.1631	672.33 ± 4.3	–
6010 kPa, x2 = 0.3158	–	669.31 ± 4.3
6010 kPa, x2 = 0.4411	688.39 ± 4.4	–
6010 kPa, x2 = 0.8823	740.91 ± 4.8	–
6020 kPa, x2 = 0.1631	–	662.41 ± 4.2
6020 kPa, x2 = 0.2111	674.49 ± 4.3	664.26 ± 4.3
6020 kPa, x2 = 0.3158	680.02 ± 4.4	–
6020 kPa, x2 = 0.7301	717.05 ± 4.6	–
6020 kPa, x2 = 0.8823	–	730.16 ± 4.7
7000 kPa, x2 = 0.7301	–	706.83 ± 4.5
7000 kPa, x2 = 0.8823	741.99 ± 4.8	731.28 ± 4.7
7010 kPa, x2 = 0.1631	673.46 ± 4.3	663.61 ± 4.2
7010 kPa, x2 = 0.2111	675.59 ± 4.3	665.47 ± 4.3
7010 kPa, x2 = 0.4411	689.51 ± 4.4	–
7010 kPa, x2 = 0.7301	718.15 ± 4.6	–
7020 kPa, x2 = 0.3158	681.12 ± 4.4	670.48 ± 4.3
7020 kPa, x2 = 0.4411	–	678.5 ± 4.3
8000 kPa, x2 = 0.2111	676.71 ± 4.3	–
8000 kPa, x2 = 0.3158	682.22 ± 4.4	–
8000 kPa, x2 = 0.8823	743 ± 4.8	–
8010 kPa, x2 = 0.1631	674.54 ± 4.3	664.82 ± 4.3
8010 kPa, x2 = 0.3158	–	671.68 ± 4.3
8010 kPa, x2 = 0.4411	690.61 ± 4.4	679.69 ± 4.4
8010 kPa, x2 = 0.7301	–	708 ± 4.5
8020 kPa, x2 = 0.2111	–	666.69 ± 4.3
8020 kPa, x2 = 0.7301	719.22 ± 4.6	–
8020 kPa, x2 = 0.8823	–	732.4 ± 4.7
9000 kPa, x2 = 0.1631	675.63 ± 4.3	666 ± 4.3
9000 kPa, x2 = 0.4411	691.72 ± 4.4	–
9000 kPa, x2 = 0.7301	720.31 ± 4.6	–
9010 kPa, x2 = 0.2111	677.8 ± 4.3	667.86 ± 4.3
9010 kPa, x2 = 0.3158	683.34 ± 4.4	672.89 ± 4.3
9010 kPa, x2 = 0.4411	–	680.87 ± 4.4
9010 kPa, x2 = 0.7301	–	709.2 ± 4.5
9010 kPa, x2 = 0.8823	744.04 ± 4.8	–
9020 kPa, x2 = 0.8823	–	733.54 ± 4.7
10000 kPa, x2 = 0.8823	–	734.63 ± 4.7
10010 kPa, x2 = 0.1631	–	667.15 ± 4.3
10010 kPa, x2 = 0.2111	678.85 ± 4.3	669.02 ± 4.3
10010 kPa, x2 = 0.3158	684.4 ± 4.4	–
10010 kPa, x2 = 0.4411	692.81 ± 4.4	–
10010 kPa, x2 = 0.8823	745.05 ± 4.8	–
10020 kPa, x2 = 0.1631	676.71 ± 4.3	–
10020 kPa, x2 = 0.7301	721.36 ± 4.6	–
11000 kPa, x2 = 0.4411	693.87 ± 4.5	–
11010 kPa, x2 = 0.2111	679.93 ± 4.4	–
11010 kPa, x2 = 0.3158	685.49 ± 4.4	–
11020 kPa, x2 = 0.1631	677.8 ± 4.3	–
11020 kPa, x2 = 0.7301	722.39 ± 4.6	–
11020 kPa, x2 = 0.8823	746.05 ± 4.8	–
12000 kPa, x2 = 0.3158	686.55 ± 4.4	–
12010 kPa, x2 = 0.2111	681 ± 4.4	–
12010 kPa, x2 = 0.7301	723.42 ± 4.6	–
12010 kPa, x2 = 0.8823	747.05 ± 4.8	–
12020 kPa, x2 = 0.1631	678.83 ± 4.3	–
12020 kPa, x2 = 0.4411	694.93 ± 4.5	–
13000 kPa, x2 = 0.2111	682.04 ± 4.4	–
13010 kPa, x2 = 0.3158	687.6 ± 4.4	–
13010 kPa, x2 = 0.4411	695.99 ± 4.5	–
13010 kPa, x2 = 0.8823	748.05 ± 4.8	–
13020 kPa, x2 = 0.1631	679.88 ± 4.4	–
13020 kPa, x2 = 0.7301	724.48 ± 4.6	–
14000 kPa, x2 = 0.2111	683.07 ± 4.4	–
14000 kPa, x2 = 0.7301	725.49 ± 4.7	–
14000 kPa, x2 = 0.8823	749.02 ± 4.8	–
14010 kPa, x2 = 0.1631	680.88 ± 4.4	–
14010 kPa, x2 = 0.4411	697.01 ± 4.5	–
14020 kPa, x2 = 0.3158	688.64 ± 4.4	–
15000 kPa, x2 = 0.2111	684.09 ± 4.4	–
15000 kPa, x2 = 0.8823	749.96 ± 4.8	–
15010 kPa, x2 = 0.1631	681.89 ± 4.4	–
15010 kPa, x2 = 0.3158	689.64 ± 4.4	–
15010 kPa, x2 = 0.7301	726.47 ± 4.7	–
15020 kPa, x2 = 0.4411	698 ± 4.5	–
16000 kPa, x2 = 0.2111	685.06 ± 4.4	–
16000 kPa, x2 = 0.3158	690.66 ± 4.4	–
16000 kPa, x2 = 0.4411	699.01 ± 4.5	–
16010 kPa, x2 = 0.1631	682.9 ± 4.4	–
16010 kPa, x2 = 0.7301	727.46 ± 4.7	–
16010 kPa, x2 = 0.8823	750.92 ± 4.8	–
17000 kPa, x2 = 0.8823	751.86 ± 4.8	–
17010 kPa, x2 = 0.1631	683.85 ± 4.4	–
17010 kPa, x2 = 0.2111	686.08 ± 4.4	–
17010 kPa, x2 = 0.3158	691.65 ± 4.4	–
17010 kPa, x2 = 0.4411	699.99 ± 4.5	–
17010 kPa, x2 = 0.7301	728.43 ± 4.7	–
18000 kPa, x2 = 0.1631	684.83 ± 4.4	–
18000 kPa, x2 = 0.7301	729.35 ± 4.7	–
18010 kPa, x2 = 0.3158	692.6 ± 4.5	–
18010 kPa, x2 = 0.4411	700.97 ± 4.5	–
18020 kPa, x2 = 0.2111	687.03 ± 4.4	–
18020 kPa, x2 = 0.8823	752.76 ± 4.8	–
19000 kPa, x2 = 0.1631	685.78 ± 4.4	–
19010 kPa, x2 = 0.3158	693.56 ± 4.5	–
19010 kPa, x2 = 0.8823	753.68 ± 4.8	–
19020 kPa, x2 = 0.2111	687.96 ± 4.4	–
19020 kPa, x2 = 0.4411	701.92 ± 4.5	–
19020 kPa, x2 = 0.7301	730.28 ± 4.7	–
20000 kPa, x2 = 0.7301	731.24 ± 4.7	–
20010 kPa, x2 = 0.1631	686.67 ± 4.4	–
20010 kPa, x2 = 0.2111	688.89 ± 4.4	–
20010 kPa, x2 = 0.3158	694.48 ± 4.5	–
20010 kPa, x2 = 0.4411	702.85 ± 4.5	–
20020 kPa, x2 = 0.8823	754.54 ± 4.8	–
